Laboratory results as given in EP0983764A1, “PREVENTIVES FOR ISCHEMIC HEART DISEASES” (TAISHO PHARMACEUTICAL CO. LTD, priority 1997, dated 1998).
Read-outs that look alike come from different tables or passages of the source. Marks after values point to notes of the source that are not given here.

Experiments:
[1] = system: cholesterol-loading rabbits; assay: Antiarteriosclerotic activity in a model for the treatment of arteriosclerosis in cholesterol-loading rabbits; assay type: in vivo, rabbits (NZW strain male); settings: for inhibition at 3 mg/kg: Oryctolagus cuniculus
Procedure: As test animals were used a group of 10 rabbits previously fed with a 1% cholesterol-enriched feed to develop atherosclerosis (of 5 months, NZW strain male; available from Kitayama RABES K.K.)
A group of rabbits with arteriosclerosis were fed with a normal feed for rabbits RC-4 (available from Oriental Kobo K-K.) for 3 months and then adopted as a control group, while the compound of the invention was orally administered to a medicated group at 3 mg/kg once per day during this period.
After blood collection, the common carotid artery and the aorta were excised and a certain site thereof was fixed with 10% neutral buffered formalin to prepare a slice of the arterial tissue. Elastin elastic fiber-stained preparations were prepared by Elastic Van Gieson (EVG) staining, fat-stained preparations were prepared by Oil Red O staining and smooth muscle-stained preparations were prepared by anti-human α-actin antibody 1A4 staining.
A degree of intimal elastin fibrogenesis and a degree of medium lipid deposition were assessed in terms of 5 scores on elastin-positve and lipid staining-positive intensities (Grade; 0: No changes, 1: Minimum, 2: Mild, 3: Moderate, and 4: Severe). Areas of the intima (I) and of the medium (M) were measured by means of an image analysis system (Adobe Photoshop, Unitimage for the Apple Macintosh) and a ratio of both values (I/M) was calculated.
An elastin density of the fibrous cap in the intimal surface was calculated in terms of a ratio of the elastin-positive area to a given area of the intimal surface. A ratio of the α-actin-positive area to the intimal surface area at a similar site was defined as a smooth muscle density. Cholesterol was extracted from a portion of the excised aorta with a solution of chloroform : methanol (2:1) and was assayed according to an enzyme method (Cholesterol CII-Test WAKO, Free Cholesterol C-TEST WAKO, Wako Pure Chemical Industries, Ltd.)
(§1) A total blood cholesterol level was measured according to an enzyme method (Autosera CHO-2, Daiichi Kagaku Yakuhin K.K.) using an autoanalyzer (Hitachi 7150 type).

[2] = system: hereditary hyperlipemic WHHL rabbits; assay: Antiarteriosclerotic activity in hereditary hyperlipemic WHHL rabbits; assay type: in vivo; settings: for Total cholesterol in the arterial wall: 18 months, aorta; for Total cholesterol in the arterial wall / Total blood cholesterol / Intimal cholesterol deposition / Intimal surface elastin/collagen / Intimal collagen / Intimal elastin / Medium Elastin: Mean ± S.E.; for Total blood cholesterol: in feed over 18 months, at autopsy; for Intimal cholesterol deposition: plaque components in aortic arteriosclerosis; for Intimal cholesterol deposition / Intimal collagen / Intimal elastin / Medium Elastin: score, Grade 0-4; for Intimal surface elastin/collagen: ratio
Excerpt: The compound of the invention was continuously administered to rabbits of 2 months with hereditary hyperlipemia (WHHL rabbits, available from Kitayama RABES K.K.) over 18 months and then the rabbits were autopsied.
A portion of the aorta was fixed with 10% neutral buffered formalin and then embedded in paraffin or freeze-embedded to prepare a slice of the arterial tissue. The slice was stained with Hematoxylin and Eosin (HE), Elastic Van Gieson (EVG), Azan-Mallory, and Oil Red O. A positive rate was assessed under microscopic observation in terms of 5 scores (Grade; 0: No changes, 1: Minimum, 2: Mild, 3: Moderate, and 4: Severe) to measure changes in components in the arteriosclerotic lesion. For another portion of the aorta, cholesterol was extracted with a solution of chloroform methanol (2:1) and a total cholesterol level in the arterial wall was assayed according to an enzyme method (Cholesterol CII-Test WAKO, Wako Pure Chemical Industries, Ltd.)
A total blood cholesterol level value at the autopsy was measured according to an enzyme method (Autosera CHO-2, Daiichi Kagaku Yakuhin K.K.) using an autoanalyzer (Hitachi 7150 type).
The drug was mixed into a feed for rabbits RC-4 (Oriental Kobo K.K.) at the concentrations of 0.005% and of 0.05%, and the resulting feed was given daily between 9:00 a.m. and 11:30 a.m. while the feed was restricted to 20 g/kg of body weight.

[3] = system: high fat-loading hamsters; assay: Antiarteriosclerotic activity in a model for the treatment of arteriosclerosis in high fat-loading hamsters; assay type: in vivo, male golden hamsters; settings: for Degree of lipid deposition on the arterial wall: 10 weeks, aortic arch, Oil Red O; for Degree of lipid deposition on the arterial wall / Total blood cholesterol: Means ± S.E. (n=5); for Total blood cholesterol: in high fat diet for 10 weeks
Excerpt: As test animals were used a group of 5 male golden hamsters of 6 weeks (available from Nihon SLC K.K.) Hamsters were fed with the following high fat diet for 10 weeks to prepare a model for arteriosclerosis.
During this period, the compound of the invention was continuously administered to a medicated group, simultaneously with feeding.
After blood collection, the aortic arch was excised and the adventitia was completely stripped off under microscopic observation. The tissue after fixed with 10% neutral buffered formalin was fat-stained with an Oil Red O solution and enclosed in a glycerol-gelatin solution on a slide glass to prepare a tissue preparation.
An area of the fat-stained site (µm^2) and an area of the artery (mm^2) were measured by means of an image analysis system (Adobe Photoshop, Unitimage for the Apple Macintosh) and a ratio of both values was calculated to determine a degree of lipid deposition on the arterial wall.
as §1
The drug was given in admixture with a high fat diet at the concentrations of 0.003% and of 0.03%, and a dose was calculated from the amount of feed ingested and the body weight.
Composition of a high fat diet: A feed for rats MF (available from Oriental Kobo K.K.) to which 10% coconut oil and 0.05% cholesterol were supplemented. (Results)

[4] = 3 mg/kg orally once per day, 3 months, aorta
[5] = 3 mg/kg, score, Grade 0: No change to 4: Severe, Mean ± S.E.

SMILES: CCCCCCCCCCCCCCSCC(=O)Nc1c(C(C)C)cccc1C(C)C [Compound of the invention]
- Total blood cholesterol ([1]; 3 mg/kg orally once per day, 3 months): 113.4 ± 38.6 mg/dL
- Degree of intimal thickening in the common carotid artery ([1]; 3 mg/kg orally once per day, 3 months, I/M = Area of the intima/Area of the medium): 0.45±0.18 I/M
- Cholesteryl ester in the arterial wall [1, 4]: 219.1 ± 18.4 mg/g
- Free cholesterol in the arterial wall [1, 4]: 119.1 ± 12.2 mg/g
- Total cholesterol in the arterial wall [1, 4]: 338.2 ± 29.9 mg/g
- Elastin density in the intimal surface ([1]; 3 mg/kg, ratio of elastin-positive area to a given area of the intimal surface): 151±30
- Density of smooth muscle in the intimal surface ([1]; 3 mg/kg, ratio of α-actin-positive area to the intimal surface area): 614±35
- Degree of intimal elastin fibrogenesis [1, 5]: 1.7±0.2
- Degree of medium lipid deposition [1, 5]: 1.2±0.1
- Degree of intimal elastin fibrogenesis Acceleration (%) ([1]; 3 mg/kg, vs. control group): 112.5%
- Density of smooth muscle in the intimal surface Acceleration (%) ([1]; 3 mg/kg, vs. control group): 18.5%
- Elastin density in the intimal surface Acceleration (%) ([1]; 3 mg/kg, vs. control group): 37.0%
- inhibition at 3 mg/kg ([1]; 3 mg/kg, vs. control group, read-out: Cholesteryl ester in the arterial wall Inhibition (%)): 24.1%
- inhibition at 3 mg/kg ([1]; 3 mg/kg, vs. control group, read-out: Degree of intimal thickening in the common carotid artery Inhibition (%)): 55.9%
- inhibition at 3 mg/kg ([1]; 3 mg/kg, vs. control group, read-out: Degree of medium lipid deposition Inhibition (%)): 47.8%
- regressing a degree of intimal thickening ([1]; aortic arch, phase of the complete plaque): no action of regressing a degree of intimal thickening
- Total cholesterol in the arterial wall ([2]; 1 mg/kg): 29.3 ± 4.8 mg/g
- Total blood cholesterol ([2]; 1 mg/kg): 462 ± 13 mg/dL
- Intimal cholesterol deposition ([2]; 1 mg/kg): 2.6±0.2
- Intimal surface elastin/collagen ([2]; 1 mg/kg): 1.26±0.24
- Intimal collagen ([2]; 1 mg/kg): 3.0±0.2
- Intimal elastin ([2]; 1 mg/kg): 1.5±0.2
- Medium Elastin ([2]; 1 mg/kg): 0.93±0.20
- Total cholesterol in the arterial wall ([2]; 10 mg/kg): 32.2 ± 2.6 mg/g
- Total blood cholesterol ([2]; 10 mg/kg): 438 ± 20 mg/dL
- Intimal cholesterol deposition ([2]; 10 mg/kg): 2.2±0.1
- Intimal surface elastin/collagen ([2]; 10 mg/kg): 2.01±0.36
- Intimal collagen ([2]; 10 mg/kg): 3.0±0.1
- Intimal elastin ([2]; 10 mg/kg): 1.8±0.2
- Medium Elastin ([2]; 10 mg/kg): 1.59±0.09
- inhibition at 1 mg/kg ([2]; Oryctolagus cuniculus, 1 mg/kg, vs. control group, read-out: Total cholesterol in the arterial wall Inhibition (%)): 26.4%
- inhibition at 10 mg/kg ([2]; Oryctolagus cuniculus, 10 mg/kg, vs. control group, read-out: Total cholesterol in the arterial wall Inhibition (%)): 19.1%
- action on endothelial cells ([2]; old WHHL rabbit lesion): compacting endothelial cells
- Degree of lipid deposition on the arterial wall ([3]; 1.5 mg/kg): 217.5±40.5* µm^2/mm^2
- Total blood cholesterol ([3]; 1.5 mg/kg): 372.0 ± 35.5 mg/dL
- Degree of lipid deposition on the arterial wall ([3]; 15 mg/kg): 46.2± 8.6** µm^2/mm^2
- Total blood cholesterol ([3]; 15 mg/kg): 231.2 ± 4.9 mg/dL
- inhibition at 1.5 mg/kg ([3]; Mesocricetus auratus, 1.5 mg/kg, vs. control group, read-out: Degree of lipid deposition on the arterial wall Inhibition (%)): 67.3%
- inhibition at 15 mg/kg ([3]; Mesocricetus auratus, 15 mg/kg, vs. control group, read-out: Degree of lipid deposition on the arterial wall Inhibition (%)): 93.1%
